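Method: 48-hour compound exposure of cells in 96-well plates, five concentrations, linear interpolation of endpoints. GI50 = concentration required for 50% inhibition of growth.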 Active and inactive are the calls of the source. Cut-off read from the data, not from the text of the source: active = GI50 up to about 1.1 µM and inactive = higher. Where a SMILES comes first, the peptide text is derived from it. Bridges are numbered along the chain shown (N, C = ends). [ ]: non-standard residue; d: D form. The star is where a group is joined. ξ: configuration not given here. PhAc = O=C(Cc1ccccc1)*; ξP = O=C(O)C1CCCN1

Consider nine compounds from ChEMBL document CHEMBL1201862, “PubChem BioAssay data set” (2004).

Among the test systems are OVCAR-4; OVCAR-3; NCI-H522; SN12C; SF-295; LOX IMVI; 786-0; NCI-H23; HCT-116; CAKI-1; MDA-N; DU-145; A549; HOP-92; UO-31; NCI/ADR-RES; SK-OV-3; COLO 205; PC-3.
Test in all cases: NCI-60 cell line screen, 48 h

On to `O=C(COc1cc(=O)oc2ccccc12)c1ccccc1`, for which the GI50 with OVCAR-4 is 29.6 µM (inactive); in the test with OVCAR-3, 19.4 µM (inactive); in the test on NCI-H522 it was 32.4 µM (inactive); in the test on SN12C, > 100 µM (inactive); in the test with SF-295 it was 29.1 µM (inactive); with LOX IMVI, 41.1 µM (inactive). Besides, the GI50 in the test with 786-0 is 30.2 µM (inactive); in the test with NCI-H23, 25.2 µM (inactive); in the test with HCT-116, 17.9 µM (inactive); in the test on CAKI-1, 4.69 µM (inactive); with MDA-N, 47 µM (inactive); with DU-145, > 100 µM (inactive). The GI50 with A549 was 97.3 µM (inactive); in the test with HOP-92 it was 16.7 µM (inactive); in the test on UO-31, > 10 µM (inactive).

In the case of `CC(NC(=O)OC(C)(C)C)C(=O)C(N)=O` (stereo not drawn), the GI50 in the test with NCI/ADR-RES, with SN12C, in the test on LOX IMVI, with 786-0, with NCI-H23 and in the test with HCT-116 was > 100 µM (inactive) throughout. For the same compound, the GI50 with SK-OV-3, in the test on MDA-N, in the test on COLO 205, with DU-145, with A549 and in the test on HOP-92 was > 100 µM (inactive) in each case. The GI50 in the test with PC-3 and in the test on UO-31 was > 100 µM (inactive) each time.

For the compound `C/C(=N\N=C(N)N)c1c(C(=O)OCCCCCCOC(=O)c2nc3sccn3c2/C(C)=N/N=C(N)N)nc2sccn12`, the GI50 was > 100 µM (inactive) in the test with OVCAR-4; > 100 µM (inactive) in the test with NCI-H522; > 100 µM (inactive) in the test with NCI/ADR-RES; > 100 µM (inactive) in the test with SN12C; 98.2 µM (inactive) in the test on LOX IMVI; 41.9 µM (inactive) in the test with 786-0. Besides, the GI50 in the test with NCI-H23 is 46.1 µM (inactive); with HCT-116, > 100 µM (inactive); in the test with CAKI-1, > 100 µM (inactive); in the test with MDA-N, > 100 µM (inactive); with COLO 205, > 100 µM (inactive); in the test on A549 it was > 100 µM (inactive). Also, the GI50 with HOP-92 is > 100 µM (inactive); in the test on PC-3 it was > 100 µM (inactive); in the test on UO-31, 69.5 µM (inactive).

`COc1ccc(/C=C/C(=O)c2ccc(Br)cc2)cc1`: the GI50 with OVCAR-4 was > 100 µM (inactive); with NCI/ADR-RES, 52 µM (inactive); in the test with SN12C it was > 100 µM (inactive); in the test with SF-295 it was > 100 µM (inactive); in the test on 786-0, > 100 µM (inactive); with NCI-H23, 30.6 µM (inactive). Further, the GI50 with HCT-116 is 80.4 µM (inactive); in the test with SK-OV-3, > 100 µM (inactive); in the test on CAKI-1 it was > 100 µM (inactive); in the test with MDA-N, > 100 µM (inactive); in the test with COLO 205, > 100 µM (inactive); with DU-145, > 100 µM (inactive). For the same compound, the figures for the GI50 with A549, in the test on PC-3 and in the test with UO-31 were > 100 µM (inactive), > 100 µM (inactive) and 78.7 µM (inactive), respectively.

With `CC1=CC(=O)C(=CN2C(=O)/C(=C\c3cccnc3)NC2=S)C(=O)O1`, the GI50 with OVCAR-4, in the test with OVCAR-3, with NCI/ADR-RES, with SN12C, with SF-295 and in the test on LOX IMVI was > 100 µM (inactive) in each case. The GI50 in the test with 786-0, with NCI-H23, with HCT-116, in the test on SK-OV-3, in the test on CAKI-1 and in the test on MDA-N was > 100 µM (inactive) throughout. Moreover, the GI50 with COLO 205, in the test on DU-145, with A549, in the test with HOP-92, with PC-3 and in the test on UO-31 was > 100 µM (inactive) throughout.

Consider `CCCCOc1ccc(S(=O)(=O)/N=C(\NN)Nc2ccc(Cl)cc2)cc1`, for which the GI50 is 19.1 µM (inactive) in the test on OVCAR-4; 20.8 µM (inactive) in the test on OVCAR-3; 24.5 µM (inactive) in the test with NCI/ADR-RES; 19.2 µM (inactive) with SN12C; 23.4 µM (inactive) with SF-295; 19.8 µM (inactive) with LOX IMVI. For the same compound, the GI50 was 17.1 µM (inactive) with 786-0; 36.1 µM (inactive) in the test with NCI-H23; 20 µM (inactive) in the test with HCT-116; 27 µM (inactive) in the test with SK-OV-3; 21.5 µM (inactive) in the test on CAKI-1; 32.3 µM (inactive) in the test with MDA-N. Besides, the GI50 was 18 µM (inactive) in the test on COLO 205; 17.2 µM (inactive) in the test with DU-145; 17.8 µM (inactive) with A549; 25.2 µM (inactive) in the test on HOP-92; 17.7 µM (inactive) in the test on PC-3; 18.2 µM (inactive) with UO-31.

Turning to `COc1cc(C2c3[nH]c4ccccc4c3C[C@H]3COC(=O)N23)cc(OC)c1OC` (stereo partly drawn), the GI50 in the test with OVCAR-4 was 1.55 µM (inactive); with OVCAR-3, 0.0307 µM (active); in the test on NCI-H522, 0.015 µM (active); with SN12C, 0.163 µM (active); in the test with SF-295, 0.0262 µM (active); in the test with LOX IMVI it was 0.0336 µM (active). Further, the GI50 in the test on 786-0 was 0.0304 µM (active); with NCI-H23, 0.0776 µM (active); in the test with HCT-116, 0.0416 µM (active); in the test with SK-OV-3, 0.0366 µM (active); in the test on CAKI-1, 0.885 µM (active); in the test with MDA-N, 0.0181 µM (active). Besides, the GI50 in the test on COLO 205 is 0.0687 µM (active); with DU-145 it was 0.0879 µM (active); in the test with A549, 0.101 µM (active); in the test on HOP-92, 0.92 µM (active); with PC-3 it was 0.0411 µM (active); in the test on UO-31 it was 0.0431 µM (active).

As to `OC1(c2ccc3ccccc3c2)c2ccc3ccccc3c2C2=NCCN21` (stereo not drawn), the GI50 in the test with OVCAR-4 is 22.3 µM (inactive); in the test on OVCAR-3, > 100 µM (inactive); with NCI/ADR-RES it was 37.1 µM (inactive); in the test with SN12C, > 100 µM (inactive); in the test on SF-295 it was 41.4 µM (inactive); in the test with LOX IMVI, 91.8 µM (inactive). Further, the GI50 with 786-0 was 24.8 µM (inactive); in the test on NCI-H23, > 100 µM (inactive); in the test with HCT-116, 34.6 µM (inactive); in the test with SK-OV-3 it was > 100 µM (inactive); in the test on CAKI-1, > 100 µM (inactive); with MDA-N, > 100 µM (inactive). The GI50 in the test with COLO 205 is > 100 µM (inactive); in the test with DU-145, > 100 µM (inactive); in the test with A549, 46.5 µM (inactive); with HOP-92 it was > 100 µM (inactive); with PC-3, > 100 µM (inactive); with UO-31, 40.9 µM (inactive).

In the case of `O=C(Cc1ccccc1)N[C@@H]1COC(=O)C2CCCN2C(=O)[C@@H]2CCCN2C1=O` (stereo partly drawn) (PhAc-[dS]-Pro-[ξP]; ester 1-C), the GI50 in the test on OVCAR-4, with OVCAR-3, in the test with NCI/ADR-RES, in the test on SN12C, in the test on SF-295 and in the test on LOX IMVI was > 100 µM (inactive) throughout. The GI50 in the test with 786-0, with NCI-H23, with HCT-116, in the test on SK-OV-3, in the test with CAKI-1 and in the test on MDA-N was > 100 µM (inactive) in each case. The GI50 in the test on COLO 205, in the test on DU-145, with A549, with HOP-92 and in the test with PC-3 was > 100 µM (inactive) throughout.
